The numbers were not newly measured in patent US20050014730A1, “Anti-fungal formulation of triterpene and essential oil” (priority 2003, published 2005), which cites them from elsewhere.

Consider `C=C(C)[C@@H]1CC[C@]2(CO)CC[C@]3(C)[C@H](CC[C@@H]4[C@@]5(C)CC[C@H](O)C(C)(C)[C@@H]5CC[C@]43C)[C@@H]12` [betulin], for which the “solubility of betulin in water” value is listed as “about 0.15 mg/l”.
